Test results taken from US9113629B2, “4-amino-6-(4-substituted-phenyl)-picolinates and 6-amino-2-(4-substituted-phenyl)-pyrimidine-4-carboxylates and their use as herbicides” (DOW AGROSCIENCES LLC, priority 2013, dated 2015).

The compounds below were run on VIOSS: wild pansy (Viola tricolor), field violet (Viola arvensis) (assay: Post-emergent Test III, herbicidal activity in wheat and barley). Conditions: Viola tricolor, post-emergence, 504 h; 35 g ai/ha; 21 days after application; read-out: Visual Gorowth Reduction (%) 21 days After Application VIOSS.
Assay type: in vivo
How it was run: (§1)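 GR20, GR50, GR80 and GR90 come from probit analysis of visual injury scores (0 = none, 100 = complete kill) taken 21 d after treatment. Foliar application was by track sprayer delivering 187 L/ha at five rates, from high down to 1/16×, onto greenhouse plants at the 2–3 leaf stage, with solvent-blank controls.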

| SMILES | pest or weed control at 35 g/ha [%] |
| --- | --- |
| COC(=O)c1nc(-c2ccc(I)c(F)c2)c(F)c(N)c1Cl [Compound 132] | 95 to 100 |

Same assay, conditions: Viola tricolor, post-emergence, 504 h; 70 g ai/ha; 21 days after application; read-out: Visual Gorowth Reduction (%) 21 days After Application VIOSS

| SMILES | pest or weed control at 70 g/ha [%] |
| --- | --- |
| COC(=O)c1nc(-c2ccc(I)c(F)c2)c(F)c(N)c1Cl [Compound 132] | 95 to 100 |

Same assay, conditions: Viola tricolor, post-emergence, 504 h; 140 g ai/ha; 21 days after application; read-out: Visual Gorowth Reduction (%) 21 days After Application VIOSS

| SMILES | pest or weed control at 140 g/ha [%] |
| --- | --- |
| COC(=O)c1nc(-c2ccc(I)c(F)c2)c(F)c(N)c1Cl [Compound 132] | 95 to 100 |

Same assay, conditions: probit analysis; dose for 50 percent growth reduction; 21 days after application

| SMILES | GR50 VIOSS [g ai/ha] |
| --- | --- |
| COC(=O)c1nc(-c2ccc(I)c(F)c2)c(F)c(N)c1Cl [Compound 132] | 9 |

Same assay, conditions: probit analysis; dose for 80 percent growth reduction; 21 days after application

| SMILES | GR80 VIOSS [g ai/ha] |
| --- | --- |
| COC(=O)c1nc(-c2ccc(I)c(F)c2)c(F)c(N)c1Cl [Compound 132] | 17 |

What follows are compounds tested on SASKR: Russian thistle (Salsola iberica) in the same assay as above. Conditions: Salsola tragus, post-emergence, 504 h; 35 g ai/ha; 21 days after application; read-out: Visual Gorowth Reduction (%) 21 days After Application SASKR.
Assay type: in vivo
How it was run: as §1

| SMILES | pest or weed control at 35 g/ha [%] |
| --- | --- |
| COC(=O)c1nc(-c2ccc(I)c(F)c2)c(F)c(N)c1Cl [Compound 132] | 75 to 84 |

Same assay, conditions: Salsola tragus, post-emergence, 504 h; 70 g ai/ha; 21 days after application; read-out: Visual Gorowth Reduction (%) 21 days After Application SASKR

| SMILES | pest or weed control at 70 g/ha [%] |
| --- | --- |
| COC(=O)c1nc(-c2ccc(I)c(F)c2)c(F)c(N)c1Cl [Compound 132] | 75 to 84 |

Same assay, conditions: Salsola tragus, post-emergence, 504 h; 140 g ai/ha; 21 days after application; read-out: Visual Gorowth Reduction (%) 21 days After Application SASKR

| SMILES | pest or weed control at 140 g/ha [%] |
| --- | --- |
| COC(=O)c1nc(-c2ccc(I)c(F)c2)c(F)c(N)c1Cl [Compound 132] | 75 to 84 |

Same assay, conditions: probit analysis; dose for 50 percent growth reduction; 21 days after application

| SMILES | GR50 SASKR [g ai/ha] |
| --- | --- |
| COC(=O)c1nc(-c2ccc(I)c(F)c2)c(F)c(N)c1Cl [Compound 132] | 1 |

Same assay, conditions: probit analysis; dose for 80 percent growth reduction; 21 days after application

| SMILES | GR80 SASKR [g ai/ha] |
| --- | --- |
| COC(=O)c1nc(-c2ccc(I)c(F)c2)c(F)c(N)c1Cl [Compound 132] | 66 |

The compounds below were run on HORSS: barley, including spring and winter (Hordeum vulgare) in the same assay as above. Conditions: Hordeum vulgare, post-emergence, 504 h; 35 g ai/ha; 21 days after application; read-out: Visual Gorowth Reduction (%) 21 days After Application HORSS.
Assay type: in vivo
How it was run: as §1

| SMILES | pest or weed control at 35 g/ha [%] |
| --- | --- |
| COC(=O)c1nc(-c2ccc(I)c(F)c2)c(F)c(N)c1Cl [Compound 132] | 60 to 74 |

Same assay, conditions: Hordeum vulgare, post-emergence, 504 h; 70 g ai/ha; 21 days after application; read-out: Visual Gorowth Reduction (%) 21 days After Application HORSS

| SMILES | pest or weed control at 70 g/ha [%] |
| --- | --- |
| COC(=O)c1nc(-c2ccc(I)c(F)c2)c(F)c(N)c1Cl [Compound 132] | 75 to 84 |

Same assay, conditions: Hordeum vulgare, post-emergence, 504 h; 140 g ai/ha; 21 days after application; read-out: Visual Gorowth Reduction (%) 21 days After Application HORSS

| SMILES | pest or weed control at 140 g/ha [%] |
| --- | --- |
| COC(=O)c1nc(-c2ccc(I)c(F)c2)c(F)c(N)c1Cl [Compound 132] | 95 to 100 |

Same assay, conditions: probit analysis; dose for 20 percent growth reduction (crop); 21 days after application

| SMILES | GR20 HORSS [g ai/ha] |
| --- | --- |
| COC(=O)c1nc(-c2ccc(I)c(F)c2)c(F)c(N)c1Cl [Compound 132] | 9 |

The compounds below were run on MATSS: scented mayweed (Matricaria chamomilla), pineappleweed (Matricaria matricarioides) in the same assay as above. Conditions: Matricaria chamomilla, post-emergence, 504 h; 35 g ai/ha; 21 days after application; read-out: Visual Gorowth Reduction (%) 21 days After Application MATSS.
Assay type: in vivo
How it was run: as §1

| SMILES | pest or weed control at 35 g/ha [%] |
| --- | --- |
| COC(=O)c1nc(-c2ccc(I)c(F)c2)c(F)c(N)c1Cl [Compound 132] | 0 to 29 |

Same assay, conditions: Matricaria chamomilla, post-emergence, 504 h; 70 g ai/ha; 21 days after application; read-out: Visual Gorowth Reduction (%) 21 days After Application MATSS

| SMILES | pest or weed control at 70 g/ha [%] |
| --- | --- |
| COC(=O)c1nc(-c2ccc(I)c(F)c2)c(F)c(N)c1Cl [Compound 132] | 30 to 44 |

Same assay, conditions: Matricaria chamomilla, post-emergence, 504 h; 140 g ai/ha; 21 days after application; read-out: Visual Gorowth Reduction (%) 21 days After Application MATSS

| SMILES | pest or weed control at 140 g/ha [%] |
| --- | --- |
| COC(=O)c1nc(-c2ccc(I)c(F)c2)c(F)c(N)c1Cl [Compound 132] | 30 to 44 |

Same assay, conditions: probit analysis; dose for 50 percent growth reduction; 21 days after application

| SMILES | GR50 MATSS [g ai/ha] |
| --- | --- |
| COC(=O)c1nc(-c2ccc(I)c(F)c2)c(F)c(N)c1Cl [Compound 132] | >140 |

Same assay, conditions: probit analysis; dose for 80 percent growth reduction; 21 days after application

| SMILES | GR80 MATSS [g ai/ha] |
| --- | --- |
| COC(=O)c1nc(-c2ccc(I)c(F)c2)c(F)c(N)c1Cl [Compound 132] | >140 |

These compounds were tested on VERPE: bird's-eye speedwell (veronica persica) in the same assay as above. Conditions: Veronica persica, post-emergence, 504 h; 35 g ai/ha; 21 days after application; read-out: Visual Gorowth Reduction (%) 21 days After Application VERPE.
Assay type: in vivo
How it was run: as §1

| SMILES | pest or weed control at 35 g/ha [%] |
| --- | --- |
| COC(=O)c1nc(-c2ccc(I)c(F)c2)c(F)c(N)c1Cl [Compound 132] | 0 to 29 |

Same assay, conditions: Veronica persica, post-emergence, 504 h; 70 g ai/ha; 21 days after application; read-out: Visual Gorowth Reduction (%) 21 days After Application VERPE

| SMILES | pest or weed control at 70 g/ha [%] |
| --- | --- |
| COC(=O)c1nc(-c2ccc(I)c(F)c2)c(F)c(N)c1Cl [Compound 132] | 75 to 84 |

Same assay, conditions: Veronica persica, post-emergence, 504 h; 140 g ai/ha; 21 days after application; read-out: Visual Gorowth Reduction (%) 21 days After Application VERPE

| SMILES | pest or weed control at 140 g/ha [%] |
| --- | --- |
| COC(=O)c1nc(-c2ccc(I)c(F)c2)c(F)c(N)c1Cl [Compound 132] | 85 to 94 |

Same assay, conditions: probit analysis; dose for 50 percent growth reduction; 21 days after application

| SMILES | GR50 VERPE [g ai/ha] |
| --- | --- |
| COC(=O)c1nc(-c2ccc(I)c(F)c2)c(F)c(N)c1Cl [Compound 132] | 58 |

Same assay, conditions: probit analysis; dose for 80 percent growth reduction; 21 days after application

| SMILES | GR80 VERPE [g ai/ha] |
| --- | --- |
| COC(=O)c1nc(-c2ccc(I)c(F)c2)c(F)c(N)c1Cl [Compound 132] | 99 |

The compounds below were run on TRZSS: wheat, including spring and winter (Triticum aestivum) in the same assay as above. Conditions: Triticum aestivum, post-emergence, 504 h; 35 g ai/ha; 21 days after application; read-out: Visual Gorowth Reduction (%) 21 days After Application TRZSS.
Assay type: in vivo
How it was run: as §1

| SMILES | pest or weed control at 35 g/ha [%] |
| --- | --- |
| COC(=O)c1nc(-c2ccc(I)c(F)c2)c(F)c(N)c1Cl [Compound 132] | 60 to 74 |

Same assay, conditions: Triticum aestivum, post-emergence, 504 h; 70 g ai/ha; 21 days after application; read-out: Visual Gorowth Reduction (%) 21 days After Application TRZSS

| SMILES | pest or weed control at 70 g/ha [%] |
| --- | --- |
| COC(=O)c1nc(-c2ccc(I)c(F)c2)c(F)c(N)c1Cl [Compound 132] | 60 to 74 |

Same assay, conditions: Triticum aestivum, post-emergence, 504 h; 140 g ai/ha; 21 days after application; read-out: Visual Gorowth Reduction (%) 21 days After Application TRZSS

| SMILES | pest or weed control at 140 g/ha [%] |
| --- | --- |
| COC(=O)c1nc(-c2ccc(I)c(F)c2)c(F)c(N)c1Cl [Compound 132] | 75 to 84 |

Same assay, conditions: probit analysis; dose for 20 percent growth reduction (crop); 21 days after application

| SMILES | GR20 TRZSS [g ai/ha] |
| --- | --- |
| COC(=O)c1nc(-c2ccc(I)c(F)c2)c(F)c(N)c1Cl [Compound 132] | 10 |

These compounds were tested on KCHSC: kochia (Kochia scoparia) in the same assay as above. Conditions: Bassia scoparia, post-emergence, 504 h; 35 g ai/ha; 21 days after application; read-out: Visual Gorowth Reduction (%) 21 days After Application KCHSC.
Assay type: in vivo
How it was run: as §1

| SMILES | pest or weed control at 35 g/ha [%] |
| --- | --- |
| COC(=O)c1nc(-c2ccc(I)c(F)c2)c(F)c(N)c1Cl [Compound 132] | 85 to 94 |

Same assay, conditions: Bassia scoparia, post-emergence, 504 h; 70 g ai/ha; 21 days after application; read-out: Visual Gorowth Reduction (%) 21 days After Application KCHSC

| SMILES | pest or weed control at 70 g/ha [%] |
| --- | --- |
| COC(=O)c1nc(-c2ccc(I)c(F)c2)c(F)c(N)c1Cl [Compound 132] | 85 to 94 |

Same assay, conditions: Bassia scoparia, post-emergence, 504 h; 140 g ai/ha; 21 days after application; read-out: Visual Gorowth Reduction (%) 21 days After Application KCHSC

| SMILES | pest or weed control at 140 g/ha [%] |
| --- | --- |
| COC(=O)c1nc(-c2ccc(I)c(F)c2)c(F)c(N)c1Cl [Compound 132] | 95 to 100 |

Same assay, conditions: probit analysis; dose for 50 percent growth reduction; 21 days after application

| SMILES | GR50 KCHSC [g ai/ha] |
| --- | --- |
| COC(=O)c1nc(-c2ccc(I)c(F)c2)c(F)c(N)c1Cl [Compound 132] | 4 |

Same assay, conditions: probit analysis; dose for 80 percent growth reduction; 21 days after application

| SMILES | GR80 KCHSC [g ai/ha] |
| --- | --- |
| COC(=O)c1nc(-c2ccc(I)c(F)c2)c(F)c(N)c1Cl [Compound 132] | 20 |
